# According to ChEMBL document CHEMBL1221208, “ATP-competitive inhibitors of the mitotic kinesin KSP that function via an allosteric mechanism” (Nat Chem Biol, 2007):
# Calls of active or inactive are those of the source. The calls are words filed in the database; no cut-off is given here.
# What was measured:
# [1] = tested on: HCT-116; test: Antiproliferative activity against human HCT116 cells after 72 hrs by Cell titer Glo assay; assay type: functional, cell-based; conditions: HCT-116, 72 h
# [2] = tested on: HCT-116; test: Antiproliferative activity against human HCT116 cells expressing Kinesin-like protein KIF11 D130V mutant after 72 hrs by Cell titer Glo assay; assay type: functional, cell-based; conditions: HCT-116, 72 h
# [3] = tested on: HCT-116; test: Antiproliferative activity against IC95 biaryl selected human HCT116 cells expressing Kinesin-like protein KIF11 D130V mutant after 72 hrs by Cell titer Glo assay; assay type: functional, cell-based; conditions: HCT-116, 72 h
# [4] = tested on: HCT-116; test: Antiproliferative activity against 3x IC95 biaryl selected human HCT116 cells expressing Kinesin-like protein KIF11 D130V mutant after 72 hrs by Cell titer Glo assay; assay type: functional, cell-based; conditions: HCT-116, 72 h
# [5] = tested on: HCT-116; test: Antiproliferative activity against IC50 biaryl selected human HCT116 cells expressing Kinesin-like protein KIF11 D130V mutant after 72 hrs by Cell titer Glo assay; assay type: functional, cell-based; conditions: HCT-116, 72 h
# [6] = tested on: HCT-116; test: Antiproliferative activity against IC50 biaryl selected drug-resistant against human HCT116 cells after 72 hrs by Cell titer Glo assay; assay type: functional, cell-based; conditions: HCT-116, 72 h
# [7] = tested on: HCT-116; test: Antiproliferative activity against 3x IC95 biaryl selected drug-resistant against human HCT116 cells after 72 hrs by Cell titer Glo assay; assay type: functional, cell-based; conditions: HCT-116, 72 h
# [8] = tested on: HCT-116; test: Antiproliferative activity against IC95 biaryl selected drug-resistant against human HCT116 cells after 72 hrs by Cell titer Glo assay; assay type: functional, cell-based; conditions: HCT-116, 72 h
# [9] = target: T1, Kinesin-like protein KIF11 (Homo sapiens, UniProt P52732); test: Inhibition of human wild type Eg5 using varying ATP levels in presence of saturating levels of microtubule by Lineweaver-Burke plot
# T1 sequence (P52732 whole entry): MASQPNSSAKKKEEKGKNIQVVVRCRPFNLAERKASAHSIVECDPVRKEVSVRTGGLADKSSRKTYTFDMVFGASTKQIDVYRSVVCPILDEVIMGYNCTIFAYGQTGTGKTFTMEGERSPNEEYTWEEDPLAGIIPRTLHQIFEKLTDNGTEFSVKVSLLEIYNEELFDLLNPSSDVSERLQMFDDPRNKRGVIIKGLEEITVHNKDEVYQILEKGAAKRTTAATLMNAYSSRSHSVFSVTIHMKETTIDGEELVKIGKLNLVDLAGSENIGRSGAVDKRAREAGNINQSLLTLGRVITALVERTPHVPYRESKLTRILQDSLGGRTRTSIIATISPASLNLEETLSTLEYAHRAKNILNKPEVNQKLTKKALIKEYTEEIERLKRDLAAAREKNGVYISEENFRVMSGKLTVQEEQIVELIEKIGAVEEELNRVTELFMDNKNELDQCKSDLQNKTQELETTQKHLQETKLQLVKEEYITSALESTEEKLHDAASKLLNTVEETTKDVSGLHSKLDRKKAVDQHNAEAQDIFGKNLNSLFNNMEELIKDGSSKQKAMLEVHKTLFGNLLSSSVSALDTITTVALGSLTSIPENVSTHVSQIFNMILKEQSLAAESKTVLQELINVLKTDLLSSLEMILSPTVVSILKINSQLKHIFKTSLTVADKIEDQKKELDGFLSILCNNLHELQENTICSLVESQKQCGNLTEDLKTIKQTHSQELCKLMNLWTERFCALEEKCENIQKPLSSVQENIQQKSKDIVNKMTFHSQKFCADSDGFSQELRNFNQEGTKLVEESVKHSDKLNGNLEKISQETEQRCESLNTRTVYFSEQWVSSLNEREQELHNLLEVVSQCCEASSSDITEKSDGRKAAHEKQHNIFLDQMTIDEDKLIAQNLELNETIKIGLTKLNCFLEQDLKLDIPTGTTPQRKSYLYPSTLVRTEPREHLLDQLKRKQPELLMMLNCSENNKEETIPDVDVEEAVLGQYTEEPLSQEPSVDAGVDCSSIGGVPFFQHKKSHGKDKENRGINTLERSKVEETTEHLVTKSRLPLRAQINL
# [10] = target: T2, Kinesin-like protein KIF11 (Homo sapiens) (UniProt P52732); test: Binding affinity to human KSP assessed as photoaffinity labeling at Leu295 residue at 240 uM by photo affinity labeling study
# T2 sequence (whole entry): T1 sequence (P52732 whole entry)
Compound,IC50 [1],IC50 [2],IC50 [3],IC50 [4],IC50 [5],IC50 [6],IC50 [7],IC50 [8],Ki [9],Activity [10]
Cc1ccc(C(=O)N(CCCN)[C@@H](c2nc3cc(Cl)ccc3c(=O)n2Cc2ccccc2)C(C)C)cc1F,0.46 nM,903 nM,675 nM,87.3 nM,1190 nM,0.72 nM,22 nM,1 nM,,
NC(=O)Nc1ccc(-c2ccc(C3(C(F)(F)F)N=N3)cc2)cc1,,,,,,,,,330 nM,Active
CC(=O)O[C@@]12CO[C@@H]1C[C@H](O)[C@@]1(C)C(=O)[C@H](O)C3=C(C)[C@@H](OC(=O)[C@H](O)[C@@H](NC(=O)OC(C)(C)C)c4ccccc4)C[C@@](O)([C@@H](OC(=O)c4ccccc4)[C@H]21)C3(C)C [DOCETAXEL],0.3 nM,0.23 nM,0.59 nM,0.35 nM,0.2 nM,0.31 nM,8.7 nM,0.18 nM,,
